Measured values reported in ChEMBL document CHEMBL5375997, “Small Molecule Inhibitors Targeting the "Undruggable" Survivin: The Past, Present, and Future from a Medicinal Chemist's Perspective” (J Med Chem, 2023).

Tests used:
[1] = system: PC-3; assay: Cytotoxicity against human PC-3 cells assessed as reduction in cell viability incubated for 24 hrs by MTT assay; conditions: PC-3, 24 h
[2] = system: DU-145; assay: cells; conditions: Homo sapiens, DU-145, 24 h
Description: Cytotoxicity against human DU-145 cells assessed as inhibition of cell growth incubated for 24 hrs by MTT assay

[3] = AUC in mouse plasma at 3 mg/kg, iv measured upto 24 hrs by LC-MS/MS analysis; assay type: ADME, organism-based; design: dose 3 mg/kg, time < 24 hrs, route iv; conditions: in vivo
[4] = Cmax in […] at 1 mg/kg, iv and measured upto 24 hrs by LC/MS/MS analysis; assay type: ADME, organism-based; design: time < 24 hrs, dose 1 mg/kg, route iv; conditions: in vivo
[5] = Cytotoxicity against human HaCaT cells assessed as reduction in cell viability; assay type: toxicity, cell-based
[6] = Oral bioavailability in mouse plasma; assay type: ADME, organism-based
[7] = Cmax in […] at 1 mg/kg, po and measured upto 24 hrs by LC/MS/MS analysis; assay type: ADME, organism-based; design: time < 24 hrs, dose 1 mg/kg, route po; conditions: in vivo
[8] = system: HepG2; assay: Cytotoxicity against human HepG2 cells assessed as reduction in cell viability incubated for 72 hrs by SRB assay; assay type: functional, cell-based; conditions: HepG2, 72 h
[9] = system: MDA-MB-231; assay: Cytotoxicity against human MDA-MB-231 cells assessed as inhibition of cell growth incubated for 72 hrs by SRB assay; assay type: functional, cell-based; conditions: MDA-MB-231, 72 h
[10] = system: PC-3; assay: Cytotoxicity against human PC-3 cells assessed as reduction in cell growth incubated for 72 hrs by SRB assay; assay type: functional, cell-based; conditions: PC-3, 72 h
[11] = system: GBM528 (human); assay: Antiproliferative activity against human GBM528 cells assessed as sphere formation inhibition
[12] = system: NCI-H69; assay: Antiproliferative activity against human NCI-H69 cells assessed as reduction in cell growth; assay type: functional, cell-based

Row | SMILES | IC50 [8] [µM] | IC50 [9] [µM] | IC50 [10] [µM] | further results
1 | Cc1cccc(Nc2nc3nonc3nc2N/N=C/c2cc3c(cc2[N+](=O)[O-])OCO3)c1C | – | – | – | IC50 [1]: 2.1 µM; IC50 [2]: 2.6 µM
2 | COc1ccc(C[C@@H](C)[C@@H](C)Cc2ccc(OC)c(OC)c2)cc1OC [TERAMEPROCOL] | – | – | – | AUC [3]: 2.98 µg·h/mL; Cmax [4]: 1.06 µg/mL; IC50 [5]: 85 µM; bioavailability [6]: 88.3%; Cmax [7]: 0.442 µg/mL
3 | N#Cc1c(-c2ccc(F)cc2)cc(-c2ccc(OCc3ccc(F)cc3)cc2)[nH]c1=S | 23 | 23 | 23 | –
4 | N#Cc1c(-c2ccccc2)cc(-c2ccc(OCc3ccc(F)cc3)cc2)[nH]c1=S | 23 | 23 | 23 | –
5 | N#Cc1c(-c2ccccc2)cc(-c2ccc(OCc3ccc(F)cc3)cc2)nc1N | > 100 | > 100 | > 100 | –
6 | N#Cc1c(-c2ccccc2)cc(-c2ccc(OCc3ccc(F)cc3)cc2)[nH]c1=O | 14.4 | 14.4 | 14.4 | –
7 | N#Cc1c(-c2ccc(Cl)cc2)cc(-c2ccc(OCc3ccc(F)cc3)cc2)[nH]c1=S | 23 | 23 | 23 | –
8 | N#Cc1c(-c2ccc(Br)cc2)cc(-c2ccc(OCc3ccc(F)cc3)cc2)nc1N | 30 | 30 | 30 | –
9 | O=C1N=c2ccc(Nc3nc4nonc4nc3N/N=C/c3ccccc3OCc3ccc(Cl)cc3Cl)cc2=N1 | – | – | – | IC50 [1]: 49.8 µM; IC50 [2]: 60.3 µM
10 | CCOC(=O)c1ccc(Nc2nc3nonc3nc2N/N=C/c2c[nH]nc2-c2ccccc2)cc1 | – | – | – | IC50 [2]: 3.5 µM
11 | N#Cc1c(-c2ccc(Br)cc2)cc(-c2ccc(OCc3ccc(F)cc3)cc2)[nH]c1=S | 23 | 23 | 23 | –
12 | Cc1ccc(-c2ccc(/C=N/Nc3nc4nonc4nc3Nc3ccc(Br)cc3)o2)cc1Cl | – | – | – | IC50 [1]: 3.5 µM; IC50 [2]: 3.3 µM
13 | N#Cc1c(-c2cc(OCc3ccccc3)cc(OCc3ccccc3)c2)cc(-c2cc(Cl)ccc2O)[nH]c1=O | – | – | – | IC50 [11]: 31.2 µM
14 | Oc1ccc(CCCCCc2ccc(O)c(O)c2)cc1O | – | – | – | IC50 [12]: 3 µM
15 | Oc1ccc(CCCc2ccc(O)c(O)c2)cc1O | – | – | – | IC50 [12]: > 100 µM
16 | N#Cc1c(-c2ccc(Cl)cc2)cc(-c2ccc(OCc3ccc(F)cc3)cc2)nc1N | > 100 | > 100 | > 100 | –
